In PubChem BioAssay AID651650 (Sanford-Burnham Center for Chemical Genomics, 2012):
Calls of active or inactive are those of the source.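 The calls were made as follows: active = mean IC50 below 20 µM in each of the two panels, so potent in both; inactive = the rest.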

Molecular target: Neuropilin-1 (Homo sapiens) (UniProt O14786)
Test: blockers of CendR peptide binding to NRP-1 – biochemical, FP and AlphaScreen panel, dose response (AID 651650)
Details: NRP-1 b1b2 / RPARPAR peptide binding, FP or AlphaScreen
[1] = AlphaScreen, run 1, individual panel run IC50
[2] = FP, run 1, individual panel run IC50
[3] = FP, run 2, individual panel run IC50

Sequence of Neuropilin-1 (Homo sapiens) (O14786 whole entry, looked up): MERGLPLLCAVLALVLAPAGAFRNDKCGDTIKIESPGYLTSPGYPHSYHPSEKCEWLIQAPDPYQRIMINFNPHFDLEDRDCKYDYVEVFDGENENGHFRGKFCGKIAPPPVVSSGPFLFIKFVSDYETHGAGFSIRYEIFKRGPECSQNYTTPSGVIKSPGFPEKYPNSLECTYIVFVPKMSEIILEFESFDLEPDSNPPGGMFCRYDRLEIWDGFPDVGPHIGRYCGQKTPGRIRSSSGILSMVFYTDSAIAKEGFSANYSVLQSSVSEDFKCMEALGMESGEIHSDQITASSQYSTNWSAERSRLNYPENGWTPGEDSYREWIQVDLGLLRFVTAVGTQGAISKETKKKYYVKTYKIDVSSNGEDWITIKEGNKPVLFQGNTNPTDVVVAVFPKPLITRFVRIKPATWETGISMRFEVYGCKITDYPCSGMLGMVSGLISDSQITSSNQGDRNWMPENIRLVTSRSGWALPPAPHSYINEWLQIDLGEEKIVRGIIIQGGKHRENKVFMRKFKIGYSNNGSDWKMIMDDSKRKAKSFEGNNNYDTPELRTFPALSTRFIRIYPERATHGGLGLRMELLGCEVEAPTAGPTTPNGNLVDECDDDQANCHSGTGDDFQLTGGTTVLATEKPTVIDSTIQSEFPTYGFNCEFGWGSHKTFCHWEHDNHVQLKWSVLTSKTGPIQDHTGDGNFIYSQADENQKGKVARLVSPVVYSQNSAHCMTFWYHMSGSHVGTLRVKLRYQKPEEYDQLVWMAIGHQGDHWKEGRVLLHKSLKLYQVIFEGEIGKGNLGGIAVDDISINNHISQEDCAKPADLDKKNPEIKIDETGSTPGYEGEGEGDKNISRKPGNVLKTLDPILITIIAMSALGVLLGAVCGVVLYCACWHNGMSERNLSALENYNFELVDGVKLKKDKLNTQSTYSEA

| SMILES | IC50 (AlphaScreen, mean of runs) | IC50 [1] [µM] | IC50 (FP, mean of runs) | IC50 [2] [µM] | IC50 [3] [µM] |
| --- | --- | --- | --- | --- | --- |
| O=C(c1ncn(Cc2ccccc2)c1C(=O)N1CCc2ccccc2C1)N1CCc2ccccc2C1 | > 100 µM (inactive) | > 100 | > 95 µM (inactive) | > 95 | > 95 |
| COc1ccc(C(=O)N[C@H](C(=O)Nc2nc3c(s2)CCCC3)C(C)C)cc1 | > 100 µM (inactive) | > 100 | > 95 µM (inactive) | > 95 | > 95 |
| CC(C)NC(=O)c1c(CSc2ccccc2)noc1C(=O)NCc1ccccc1 | > 100 µM (inactive) | > 100 | > 95 µM (inactive) | > 95 | > 95 |
| CC(=O)N1CCSc2ccc(S(=O)(=O)Nc3ccc(C)cc3)cc21 | > 100 µM (inactive) | > 100 | > 95 µM (inactive) | > 95 | > 95 |
| Cc1cc2cc(CNC(=O)c3ccc(S(=O)(=O)N4CCOCC4)cc3)ccc2n1C | > 100 µM (inactive) | > 100 | > 95 µM (inactive) | > 95 | > 95 |
| Cc1cc2cc(CNC(=O)c3ccco3)ccc2n1C | > 100 µM (inactive) | > 100 | > 95 µM (inactive) | > 95 | > 95 |
| CC(CN1CCCCC1)OC(=O)c1ccc(Cl)cc1Cl (stereo not given) | > 100 µM (inactive) | > 100 | > 95 µM (inactive) | > 95 | > 95 |
| Cc1ccc(Cn2nnnc2CN2CCC(n3nnc4ccccc43)CC2)cc1 | > 100 µM (inactive) | > 100 | > 95 µM (inactive) | > 95 | > 95 |
| c1ccc2c(CNc3ccc(CNc4ncn[nH]4)cc3)cccc2c1 | > 100 µM (inactive) | > 100 | > 95 µM (inactive) | > 95 | > 95 |
| COC(=O)CCCC1=CC2=CC(=O)C(C)(OC(=O)c3cccs3)C(=O)C2=CN1CCCCO (stereo not given) | > 100 µM (inactive) | > 100 | > 95 µM (inactive) | > 95 | > 95 |
| O=c1c2ccccc2nc2n1C(CSc1ccc(F)cc1)CS2 (stereo not given) | 11.5 µM | 11.5 | > 95 µM (inactive) | > 95 | > 95 |
| Cc1cccc(CN2CCN(C3CN(Cc4cn(Cc5cccc(Cl)c5)nn4)S(=O)(=O)C3)CC2)c1 (stereo not given) | > 100 µM (inactive) | > 100 | > 95 µM (inactive) | > 95 | > 95 |
| CCOC(=O)C1=C(O)C(=O)N(c2ccccc2)C1c1cccc([N+](=O)[O-])c1 (stereo not given) | > 100 µM (inactive) | > 100 | > 95 µM (inactive) | > 95 | > 95 |
| O=C1CCC/C=C\C[C@@H](CC(=O)N(CCO)Cc2ccccc2)C(=O)N2CCC[C@H]2CO1 | > 100 µM (inactive) | > 100 | > 95 µM (inactive) | > 95 | > 95 |
| Cc1cc2c(cc1C)NC(c1nc3ccccc3[nH]1)C1=C(CC(C)(C)CC1=O)N2 (stereo not given) | > 100 µM (inactive) | > 100 | > 95 µM (inactive) | > 95 | > 95 |
| Cc1ccc(/C=N/Nc2nc3ccccc3[nH]2)s1 | > 100 µM (inactive) | > 100 | > 95 µM (inactive) | > 95 | > 95 |
| C=C(C)C1CC=C(C)/C(=N\NC(=O)CNc2ccccc2OC)C1 (stereo not given) | > 100 µM (inactive) | > 100 | > 95 µM (inactive) | > 95 | > 95 |
| CCOC(=O)N1CCN(C(=O)c2cc3n(n2)C(C(F)(F)F)CC(c2ccc4c(c2)OCO4)N3)CC1 (stereo not given) | > 100 µM (inactive) | > 100 | > 95 µM (inactive) | > 95 | > 95 |
| CCOC(=O)c1ccc2[nH]c(C)c(C)c2c1 | > 100 µM (inactive) | > 100 | > 95 µM (inactive) | > 95 | > 95 |
| COc1ccccc1N1CCN(C2CCCN(C(=O)Cn3cccn3)C2)CC1 (stereo not given) | > 100 µM (inactive) | > 100 | > 95 µM (inactive) | > 95 | > 95 |
| Cc1nc(Nc2ccc(S(N)(=O)=O)cc2)oc1C | inactive | 73.1 | > 95 µM (inactive) | > 95 | > 95 |
| CN1C[C@H](CO)C=C2c3cccc4[nH]cc(c34)C[C@H]21 | 14.4 µM | 14.4 | > 95 µM (inactive) | > 95 | > 95 |
| CN(C)/N=C/c1ccc(Sc2ccc([N+](=O)[O-])cc2[N+](=O)[O-])o1 | inactive | 85.7 | > 95 µM (inactive) | > 95 | > 95 |
| COC(=O)n1c(=O)oc2ccccc21 | > 100 µM (inactive) | > 100 | > 95 µM (inactive) | > 95 | > 95 |
| O=C(Nc1ccccc1N1CCOCC1)c1ccc(N2CCCC2=O)cc1 | > 100 µM (inactive) | > 100 | > 95 µM (inactive) | > 95 | > 95 |
| CCc1ccccc1NC(=O)c1ccccc1N1C(=O)C2C3C=CC(C3)C2C1=O (stereo not given) | inactive | 96.8 | > 95 µM (inactive) | > 95 | > 95 |
